# Reference: patent US20070117743A1, “New antitumoral compounds” (priority 2003, published 2007)
# Assays:
# Assay type in all cases: cell-based, human
# K-562 = assay: SRB colorimetric assay of cell growth and viability, K-562; details: 48 hours exposure; for CC50: read-out: LC50 K-562
# DU-145 = assay: SRB colorimetric assay of cell growth and viability, DU-145; details: 48 hours exposure
# LNCaP = assay: SRB colorimetric assay of cell growth and viability, LNCaP; details: 48 hours exposure; for GI50: read-out: GI50 LN-caP; for CC50: read-out: LC50 LN-caP
# LoVo-Dox = assay: SRB colorimetric assay of cell growth and viability, LoVo-Dox; details: 48 hours exposure; for CC50: read-out: LC50 LOVO-DOX
# Summary of the method: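 Human tumor cells seeded at 5×10^3/well in RPMI 1640 10% FBS, attached 18 hours, then exposed 48 hours to compound (10 to 10^−8 μg/mL). TCA-fixed, SRB-stained, OD 490 nm; triplicates give GI, TGI and LC values.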
# SK-BR-3 = assay: SRB colorimetric assay of cell growth and viability, SK-BR-3; details: 48 hours exposure
# A-549 = assay: SRB colorimetric assay of cell growth and viability, A-549; details: 48 hours exposure; for GI50: read-out: GI50 A-549; for CC50: read-out: LC50 A-549
# IGROV-1 = assay: SRB colorimetric assay of cell growth and viability, IGROV-1; details: 48 hours exposure
# HeLa-APL = assay: SRB colorimetric assay of cell growth and viability, HeLa-APL; details: 48 hours exposure; for CC50: read-out: LC50 HELA-APL
# PANC-1 = assay: SRB colorimetric assay of cell growth and viability, PANC-1; details: 48 hours exposure; for CC50: read-out: LC50 PANC-1
# SK-MEL-28 = assay: SRB colorimetric assay of cell growth and viability, SK-MEL-28; details: 48 hours exposure; for CC50: read-out: LC50 MEL-28
# LoVo = assay: SRB colorimetric assay of cell growth and viability, LoVo; details: 48 hours exposure; for CC50: read-out: LC50 LOVO
# HeLa = assay: SRB colorimetric assay of cell growth and viability, HeLa; details: 48 hours exposure; for CC50: read-out: LC50 HELA
# HT-29 = assay: SRB colorimetric assay of cell growth and viability, HT-29; details: 48 hours exposure; for GI50: read-out: GI50 HT-29; for CC50: read-out: LC50 HT-29
# IGROV-ET = assay: SRB colorimetric assay of cell growth and viability, IGROV-ET; details: 48 hours exposure; for CC50: read-out: LC50 IGROV-ET
structure (smiles),measurement,setting,value
"C/C=C1\NC(=O)[C@H](Cc2ccccc2)NC(=O)[C@@H](C(C)C)NC(=O)[C@@H]([C@@H](C)CC)NC(=O)[C@H](NC(=O)[C@H](NC(=O)[C@H](CCCN)NC(=O)[C@H]2CCCN2C(=O)[C@H](NC(=O)[C@@H](NC(=O)[C@@H](NC(=O)[C@H](NC(=O)CCCCCCC)C(C)C)[C@@H](C)O)C(C)C)C(C)C)[C@@H](C)CC)[C@@H](C)OC(=O)[C@H](C(C)C)NC1=O [Compound 18, [Oct^14]-KF]",GI50,K-562,2410 nM
same,CC50,K-562,4020 nM
same,GI50,DU-145,149 nM
same,LC50 (concentration causing 50% net cell kill),DU-145,1470 nM
same,TGI DU-145,DU-145,6.70E−07 Molar
same,TGI LN-caP,LNCaP,1.34E−06 Molar
same,GI50,LNCaP,402 nM
same,CC50,LNCaP,3350 nM
same,GI50,LoVo-Dox,107 nM
same,TGI LOVO-DOX,LoVo-Dox,1.68E−07 Molar
same,CC50,LoVo-Dox,335 nM
same,GI50,SK-BR-3,121 nM
same,LC50,SK-BR-3,536 nM
same,TGI SK-BR-3,SK-BR-3,3.02E−07 Molar
same,TGI A-549,A-549,2.82E−07 Molar
same,GI50,A-549,134 nM
same,CC50,A-549,1210 nM
same,GI50,IGROV-1,168 nM
same,LC50 (concentration causing 50% net cell killing),IGROV-1,1070 nM
same,TGI IGROV,IGROV-1,3.02E−07 Molar
same,GI50,HeLa-APL,536 nM
same,TGI HELA-APL,HeLa-APL,1.07E−06 Molar
same,CC50,HeLa-APL,3350 nM
same,GI50,PANC-1,2010 nM
same,TGI PANC-1,PANC-1,3.35E−06 Molar
same,CC50,PANC-1,6030 nM
same,GI50,SK-MEL-28,670 nM
same,TGI MEL-28,SK-MEL-28,1.14E−06 Molar
same,CC50,SK-MEL-28,1680 nM
same,GI50,LoVo,188 nM
same,TGI LOVO,LoVo,2.68E−07 Molar
same,CC50,LoVo,402 nM
same,GI50,HeLa,288 nM
same,TGI HELA,HeLa,8.04E−07 Molar
same,CC50,HeLa,1680 nM
same,TGI HT-29,HT-29,3.22E−07 Molar
same,GI50,HT-29,201 nM
same,CC50,HT-29,536 nM
same,GI50,IGROV-ET,147 nM
same,TGI IGROV-ET,IGROV-ET,3.02E−07 Molar
same,CC50,IGROV-ET,2010 nM
"C/C=C1\NC(=O)[C@H](Cc2ccccc2)NC(=O)[C@@H](C(C)C)NC(=O)[C@@H]([C@@H](C)CC)NC(=O)[C@H](NC(=O)[C@H](NC(=O)[C@H](CCCN)NC(=O)[C@H]2CCCN2C(=O)[C@H](NC(=O)[C@@H](NC(=O)[C@@H](NC(=O)[C@H](NC(=O)C(F)(F)C(F)(F)C(F)(F)C(F)(F)C(F)(F)C(F)(F)F)C(C)C)[C@@H](C)O)C(C)C)C(C)C)[C@@H](C)CC)[C@@H](C)OC(=O)[C@H](C(C)C)NC1=O [Compound 26, [Pfh^14]-KF]",GI50,K-562,1330 nM
same,TGI K-562,K-562,2.33E−06 Molar
same,CC50,K-562,4070 nM
same,GI50,DU-145,596 nM
same,LC50 (concentration causing 50% net cell kill),DU-145,3350 nM
same,TGI DU-145,DU-145,1.41E−06 Molar
same,TGI LN-caP,LNCaP,1.72E−06 Molar
same,GI50,LNCaP,900 nM
same,CC50,LNCaP,3280 nM
same,GI50,LoVo-Dox,131 nM
same,TGI LOVO-DOX,LoVo-Dox,2.52E−07 Molar
same,CC50,LoVo-Dox,484 nM
same,GI50,SK-BR-3,144 nM
same,LC50,SK-BR-3,2180 nM
same,TGI SK-BR-3,SK-BR-3,4.92E−07 Molar
same,TGI A-549,A-549,1.48E−06 Molar
same,GI50,A-549,684 nM
same,CC50,A-549,3190 nM
same,GI50,IGROV-1,648 nM
same,LC50 (concentration causing 50% net cell killing),IGROV-1,3360 nM
same,TGI IGROV,IGROV-1,1.48E−06 Molar
same,GI50,HeLa-APL,455 nM
same,TGI HELA-APL,HeLa-APL,1.33E−06 Molar
same,CC50,HeLa-APL,3520 nM
same,GI50,PANC-1,2010 nM
same,TGI PANC-1,PANC-1,5.50E−06 Molar
same,CC50,PANC-1,5840 nM
same,GI50,SK-MEL-28,754 nM
same,TGI MEL-28,SK-MEL-28,1.50E−06 Molar
same,CC50,SK-MEL-28,2960 nM
same,GI50,LoVo,654 nM
same,TGI LOVO,LoVo,1.38E−06 Molar
same,CC50,LoVo,2990 nM
same,GI50,HeLa,701 nM
same,TGI HELA,HeLa,1.57E−06 Molar
same,CC50,HeLa,3510 nM
same,TGI HT-29,HT-29,4.55E−07 Molar
same,GI50,HT-29,203 nM
same,CC50,HT-29,1890 nM
same,GI50,IGROV-ET,199 nM
same,TGI IGROV-ET,IGROV-ET,5.14E−07 Molar
same,CC50,IGROV-ET,2040 nM
"C/C=C1\NC(=O)[C@H](Cc2ccccc2)NC(=O)[C@@H](C(C)C)NC(=O)[C@@H]([C@@H](C)CC)NC(=O)[C@H](NC(=O)[C@H](NC(=O)[C@H](CCCN)NC(=O)[C@H]2CCCN2C(=O)[C@H](NC(=O)[C@@H](NC(=O)[C@@H](NC(=O)[C@H](NC(=O)CCCCC(C)=O)C(C)C)[C@@H](C)O)C(C)C)C(C)C)[C@@H](C)CC)[C@@H](C)OC(=O)[C@H](C(C)C)NC1=O [Compound 27, [6-OHep^14]-KF]",GI50,K-562,6700 nM
same,TGI K-562,K-562,6.70E−06 Molar
same,CC50,K-562,6700 nM
same,GI50,DU-145,6700 nM
same,LC50 (concentration causing 50% net cell kill),DU-145,6700 nM
same,TGI DU-145,DU-145,6.70E−06 Molar
same,TGI LN-caP,LNCaP,6.70E−06 Molar
same,GI50,LNCaP,6700 nM
same,CC50,LNCaP,6700 nM
same,GI50,LoVo-Dox,2140 nM
same,TGI LOVO-DOX,LoVo-Dox,6.70E−06 Molar
same,CC50,LoVo-Dox,6700 nM
same,GI50,SK-BR-3,3160 nM
same,LC50,SK-BR-3,6700 nM
same,TGI SK-BR-3,SK-BR-3,6.70E−06 Molar
same,TGI A-549,A-549,6.70E−06 Molar
same,GI50,A-549,6700 nM
same,CC50,A-549,6700 nM
same,GI50,IGROV-1,6700 nM
same,LC50 (concentration causing 50% net cell killing),IGROV-1,6700 nM
same,TGI IGROV,IGROV-1,6.70E−06 Molar
same,GI50,HeLa-APL,6700 nM
same,TGI HELA-APL,HeLa-APL,6.70E−06 Molar
same,CC50,HeLa-APL,6700 nM
same,GI50,PANC-1,6700 nM
same,TGI PANC-1,PANC-1,6.70E−06 Molar
same,CC50,PANC-1,6700 nM
same,GI50,SK-MEL-28,6700 nM
same,TGI MEL-28,SK-MEL-28,6.70E−06 Molar
same,CC50,SK-MEL-28,6700 nM
same,GI50,LoVo,3500 nM
same,TGI LOVO,LoVo,6.70E−06 Molar
same,CC50,LoVo,6700 nM
same,GI50,HeLa,6700 nM
same,TGI HELA,HeLa,6.70E−06 Molar
same,CC50,HeLa,6700 nM
same,TGI HT-29,HT-29,6.70E−06 Molar
same,GI50,HT-29,6700 nM
same,CC50,HT-29,6700 nM
same,GI50,IGROV-ET,6700 nM
same,TGI IGROV-ET,IGROV-ET,6.70E−06 Molar
same,CC50,IGROV-ET,6700 nM
"C/C=C1\NC(=O)[C@H](Cc2ccccc2)NC(=O)[C@@H](C(C)C)NC(=O)[C@@H]([C@@H](C)CC)NC(=O)[C@H](NC(=O)[C@H](NC(=O)[C@H](CCCCN)NC(=O)[C@H]2CCCN2C(=O)[C@H](NC(=O)[C@@H](NC(=O)[C@@H](NC(=O)[C@H](NC(=O)CC[C@@H](C)CC)C(C)C)[C@@H](C)O)C(C)C)C(C)C)[C@@H](C)CC)[C@@H](C)OC(=O)[C@H](C(C)C)NC1=O [Compound 30, [Lys^8, (4S)-MeHex^14]-KF]",GI50,K-562,1020 nM
same,TGI K-562,K-562,2.28E−06 Molar
same,CC50,K-562,5070 nM
same,GI50,DU-145,329 nM
same,LC50 (concentration causing 50% net cell kill),DU-145,4200 nM
same,TGI DU-145,DU-145,1.15E−06 Molar
same,TGI LN-caP,LNCaP,1.72E−06 Molar
same,GI50,LNCaP,804 nM
same,CC50,LNCaP,3680 nM
same,GI50,LoVo-Dox,164 nM
same,TGI LOVO-DOX,LoVo-Dox,3.24E−07 Molar
same,CC50,LoVo-Dox,639 nM
same,GI50,SK-BR-3,159 nM
same,LC50,SK-BR-3,579 nM
same,TGI SK-BR-3,SK-BR-3,3.04E−07 Molar
same,TGI A-549,A-549,2.24E−06 Molar
same,GI50,A-549,1040 nM
same,CC50,A-549,4810 nM
same,GI50,IGROV-1,205 nM
same,LC50 (concentration causing 50% net cell killing),IGROV-1,1090 nM
same,TGI IGROV,IGROV-1,3.87E−07 Molar
same,GI50,HeLa-APL,677 nM
same,TGI HELA-APL,HeLa-APL,1.76E−06 Molar
same,CC50,HeLa-APL,4580 nM
same,GI50,PANC-1,2170 nM
same,TGI PANC-1,PANC-1,5.28E−06 Molar
same,CC50,PANC-1,6700 nM
same,GI50,SK-MEL-28,1190 nM
same,TGI MEL-28,SK-MEL-28,2.39E−06 Molar
same,CC50,SK-MEL-28,4780 nM
same,GI50,LoVo,135 nM
same,TGI LOVO,LoVo,2.45E−07 Molar
same,CC50,LoVo,444 nM
same,GI50,HeLa,212 nM
same,TGI HELA,HeLa,5.42E−07 Molar
same,CC50,HeLa,2470 nM
same,TGI HT-29,HT-29,2.99E−07 Molar
same,GI50,HT-29,173 nM
same,CC50,HT-29,517 nM
same,GI50,IGROV-ET,192 nM
same,TGI IGROV-ET,IGROV-ET,3.50E−07 Molar
same,CC50,IGROV-ET,637 nM
